# Test results as given in patent US20030134398A1, “Mitomycin biosynthetic gene cluster” (priority 2001, published 2003).
# Where “and” joins values, the source holds several entries; their conditions need not be identical. Equal values may be shown once. Read-outs that look alike come from different tables or passages of the source.
# How the values were obtained:
# [1] = target: T1, MitM (Streptomyces lavendulae, UniProt Q9X5Q9); assay type: biochemical, S. lavendulae; settings: Example 4; with SAM
# [2] = target: T1, MitM; assay: Enzyme assay and kinetic measurement, aziridine N-methyltransferase (Example 5); assay type: biochemical, S. lavendulae; settings: for conversion of candidate substrate by MitM: in the presence of SAM, TLC/HPLC
# Description: (§1) pDHS7801 and pDHS7802 were transforned into E. coli BL21 (DE3) strain for the overexpression of MitM and MitN, respectively. E. coli cells were grown at 37° C. in NZCM broth containing 50 μg/ml kanamycin until OD600=0.6. Expression of MitM (or MitN) was induced by adding IPTG to a final concentration of 0.1 mM and reducing the temperature to 25° C. After incubating the culture overnight, cells were harvested, suspended in ice-cooled lysis buffer (50 mM NaH2PO4, pH 8.0; 300 mM NaCl; 10 mM imidazole), and lysed by sonication (6×10 seconds with 10 second pauses at 200-300 W). The supernatant collected by centrifuging the lysate at 10,000 g at 4° C. was used to pass through a Qiagen Ni-NTA column as specified by the manufacturer. The column was […] twice with wash buffer (50 mM NaH2PO4, pH 8.0; 300 mM NaCl; 20 mM imidazole) followed by dissolving the protein in elution buffer (50 mM NaH2PO4, pH 8.0; 300 mM NaCl; 250 mM imidazole). The protein eluted from the column was then precipitated with 60% ammonia sulfate, desalted by passing through a Pharmacia PD-10 column, and dissolved in 50 mM pH7.4 potassium buffer with 1 mM PMSF. The protein concentration was determined using the Bradford Assay with BSA as the standard.
# (§2) The reactions were incubated at 30° C. for 30 minutes and were terminated by twice equal volume of ethyl acetate extraction.
# (§3) The calculations were carried out using Kcat computer program by fitting the data to a Michaelis-Menton equation by linear regression.
# [3] = target: MitN (Streptomyces lavendulae, UniProt Q9X5Q8); assay: as above; assay type: biochemical, S. lavendulae; settings: for conversion of candidate substrate by MitN: in the presence of SAM, TLC/HPLC
# Description: as §1, §2, §3
# [4] = test system: E. coli strain PJS103 (mct-mrd co-expressing)
# Description: Construction of mct-mrd co-expression plasmid. […] The fragment contained the mrd gene under the control of the T7 promoter, including transcriptional terminator sequences (rrnB T1) upstream and downstream of mrd.
# (§4) The cultures were grown overnight at 37° C. and colony-forming units (CFUs) were determined.
# [5] = test system: E. coli BL21 (DE3)::pET17b (vector control)
# Description: as §4
# [6] = test system: E. coli BL21(DE3)::pET17b vector control strain; assay: [^3H]-MC uptake assay; assay type: cell-based; settings: [^3H]-MC 0.022 μg/ml
# Description: (§5) [^3H]-MC uptake assay of strains PJS102 and PJS103. [^3H]-MC was obtained from Kyowa Hakko Kogyo, Ltd. Uptake studies were performed for whole cells of PJS100, PJS102, PJS103 and E. coli BL21 (DE3)::pT7SC and pET17b. PJS100, PJS102, and PJS103 as well as vectoronly cultures were cultured (37° C.) in 5 ml of NCZYM medium with IPTG added to a final concentration of 1 mM (at approximately 3 hours growth). At 9 hours (late exponential phase), cells were harvested by centrifugation and resuspended in 1 ml NCZYM broth (5×concentration). The concentrated suspension of late-exponential growth phase cells was exposed to [^3H]-MC (59 Ci/mmol) at a final concentration of 0.022 μg/ml (0.0655 nmol). Aliquots (100 μl) were removed at frequent intervals, placed on […] GF/C filters (Whatman International, Maidstone, U.K.) and washed once with 6 ml of 0.85% NaCl poured over the filters under vacuum pressure. Additional aliquots were simultaneously removed for determination of protein content (protein assay kit, Bio-Rad Laboratories, Richmond, Calif.). Radioactivity on the filters was quantified using a Beclkan LS7000 scintillation counter. Results were expressed as nanograins of mitomycin per milligram of cell protein.
# (§6) MC uptake by E. coli cells expressing mct, mrd or mct/mrd. Since the deduced amino acid sequence of the mct gene was similar to antibiotic export proteins, reduced accumulation of MC in MCT-expressing cells would be expected. An assay, modeled after experiments used to study tetracycline efflux-mediated resistance in E. coli (Levy and McMurry, 1978), was designed to study the uptake of [^3H]-MC by the susceptible vector control and resistant mct, mrd and mct/mrd expressing E. coli strains.
# [7] = test system: E. coli strain PJS103; assay: [^3H]-MC uptake assay; assay type: cell-based
# Description: as §5, §6
# [8] = test system: E. coli strain PJS102; assay: [^3H]-MC uptake assay; assay type: cell-based; settings: at 5 minutes; [^3H]-MC 0.022 μg/ml
# Description: as §5, §6
# [9] = test system: E. coli strain PJS100; assay: [^3H]-MC uptake assay; assay type: cell-based; settings: at 30 minutes
# Description: as §5, §6
# [10] = test system: E. coli strain PJS102 (mct expressing); assay: MC resistance phenotype of E. coli, plate count; assay type: cell-based
# Description: Construction of mct expression plasmid. For the construction of the E. coli expression plasmid NdeI and HindIII sites were introduced at the translational start codon and downstream of the translational stop codon of mct, respectively. […] The PCR was carried out using 2.5 U of Taq polymerase, 0.4 μg of each primer, 1 μg of pDHS7661 DNA as template, […] each of dATP-dGTP-dCTP-dTTP, 1.5 mM MgCl2, and 10 μl of 10×Promega PCR buffer in a total volume of 100 μl .
# as §4
# [11] = test system: E. coli strain PJS100 (mrd expressing); assay: MC resistance phenotype of E. coli, plate count; assay type: cell-based
# From the text: MC resistance phenotppe of E. coli.
# [12] = test system: S. lavendulae wild-type; assay: Resistance of S. lavendulae strains to MC, plate count; assay type: cell-based, Streptomyces lavendulae
# From the text: To establish a physiological role for MCT in S. lavendulae, the corresponding gene (mct) was inactivated by insertion of the aphII gene from transposon Tn5 to give pDHS7704.
# [13] = target: macrocin O-methyltransferase (MOMT) (Streptomyces fradiae, UniProt Q9S4D5); settings: read-out: Km for SAM; cited from earlier work
# [14] = target: 31-O-demethylFK506 O-methyltransferase (FKMT) (Streptomyces tacrolimicus, UniProt P74838); settings: read-out: Km for SAM; cited from earlier work
# [15] = test system: 31-O-desmethylimmunomycin O-methyltransferase (DIMT); settings: read-out: Km for SAM; cited from earlier work
# [16] = target: demethylmacrocin O-methyltransferase (DMOMT) (Streptomyces fradiae, UniProt Q9ZHQ4); settings: read-out: Km for SAM; cited from earlier work
# [17] = target: carminomycin O-methyltransferase (CMT) (Streptomyces sp., UniProt Q55216); settings: read-out: Km for SAM; cited from earlier work
# [18] = test system: C[S+](CC[C@H](N)C(=O)O)C[C@H]1O[C@@H](n2cnc3c(N)ncnc32)[C@H](O)[C@@H]1O; assay: purified protein, by the assay type
compound,measurement,setting,value
COC1=C(C)C(=O)C2=C(C1=O)[C@@H](COC(N)=O)[C@H]1[C@H]3N[C@H]3CN21 [9a-demethoxy mitomycin A],enzymatic conversion (methylation) by MitM,[1],methylate specifically the aziridine nitrogen
"COC1=C(C)C(=O)C2=C(C1=O)[C@@H](COC(N)=O)[C@@]1(OC)[C@H]3N[C@H]3CN21 [MA, mitomycin A]",Vmax for MA,"[2]; MitM, pH 7.4, SAM fixed 200 μM",57.4 ± 4.2 nmol/mg/min
same,conversion of candidate substrate by MitM,[2],new product was formed
same,Km,"[2]; read-out: Km for MA, MitM, pH 7.4, SAM fixed 200 μM, MA 30-300 μM",169 µM
same,Vmax for MA,"[3]; MitN, pH 7.4, SAM fixed 200 μM",75.9 ± 2.4 nmol/mg/min
same,conversion of candidate substrate by MitN,[3],new product was formed
same,Km,"[3]; read-out: Km for MA, MitN, pH 7.4, SAM fixed 200 μM, MA 30-300 μM",94.7 µM and 95 µM
same,enzymatic conversion (methylation) by MitM,[1],methylated at the aziridine nitrogen
"CO[C@@]12[C@H](COC(N)=O)C3=C(C(=O)C(C)=C(N)C3=O)N1C[C@@H]1N[C@@H]12 [MC, mitomycin C]",Plate count CFU/ml,[4]; MC 80 μg/ml,1.4 × 10^5 CFU/ml
same,Plate count CFU/ml,[4]; MC 100 μg/ml,9.6 × 10^3 CFU/ml
same,Plate count CFU/ml,[4]; MC 150 μg/ml,3.0 × 10^1 CFU/ml
same,Plate count CFU/ml,[5]; MC 0.01 μg/ml,>10^7 CFU/ml
same,Plate count CFU/ml,[5]; MC 0.1 μg/ml,7.3 × 10^3 CFU/ml
same,Plate count CFU/ml,[5]; MC 0.5 μg/ml,3.2 × 10^2 CFU/ml
same,Plate count CFU/ml,[5]; MC 1.0 μg/ml,0.0 CFU/ml
same,time at which MC accumulation reaches maximum level,[6],5 min
same,MC accumulation as % of E. coli cells bearing vector alone,"[7]; at 5 minutes, [^3H]-MC 0.022 μg/ml",35%
same,"MC accumulation, % greater than strain PJS102",[7]; over the course of the experiment,about 23%
same,MC accumulation as % of the susceptible control,[8],25%
same,"MC accumulation, % higher than the drug-sensitive vector control",[9],42%
same,Plate count CFU/ml,[10]; MC 0.5 μg/ml,2.1 × 10^5 CFU/ml
same,Plate count CFU/ml,[10]; MC 1.0 μg/ml,5.9 × 10^4 CFU/ml
same,Plate count CFU/ml,[10]; MC 2.5 μg/ml,2.0 × 10^2 CFU/ml
same,Plate count CFU/ml,[10]; MC 5.0 μg/ml,0.0 CFU/ml
same,Plate count CFU/ml,[11]; MC 1.0 μg/ml,3.3 × 10^6 CFU/ml
same,Plate count CFU/ml,[11]; MC 5.0 μg/ml,2.7 × 10^6 CFU/ml
same,Plate count CFU/ml,[11]; MC 10 μg/ml,6.1 × 10^5 CFU/ml
same,Plate count CFU/ml,[11]; MC 20 μg/ml,2.5 × 10^5 CFU/ml
same,Plate count CFU/ml,[11]; MC 30 μg/ml,5.0 × 10^2 CFU/ml
same,Plate count CFU/ml,[11]; MC 60 μg/ml,0.0 CFU/ml
same,MC resistance level of the wild-type S. lavendulae,[12],> 150 μg(ml
same,Plate count CFU/ml,[12]; MC 40 μg/ml,5.3 × 10^3 CFU/ml
same,Plate count CFU/ml,[12]; MC 100 μg/ml,2.0 × 10^3 CFU/ml
same,conversion of candidate substrate by MitM,[2],no conversions were detected
same,conversion of candidate substrate by MitN,[3],no conversions were detected
same,enzymatic conversion (methylation) by MitM,[1],no conversion products were observed
"CC1=C(N)C(=O)C2=C(C1=O)N1C[C@H]3[C@H](N3C)[C@]1(O)[C@H]2COC(N)=O (stereo partly shown) [MD, mitomycin D]",conversion of candidate substrate by MitM,[2],no conversions were detected
same,conversion of candidate substrate by MitN,[3],no conversions were detected
same,enzymatic conversion (methylation) by MitM,[1],no conversion products were observed
"C=C1C2=C(C(=O)C(C)=C(OC)C2=O)N2C[C@H]3[C@H](N3C)[C@]12O (stereo partly shown) [MH, mitomycin H]",conversion of candidate substrate by MitM,[2],no conversions were detected
same,conversion of candidate substrate by MitN,[3],no conversions were detected
"COC1=C(C)C(=O)C2=C(C1=O)[C@H](COC(N)=O)[C@@]1(O)[C@@H]3[C@H](CN21)N3C (stereo partly shown) [Mitomycin B, mitomycin B]",resistance of strain PJS103 to mitomycin B,[4],high-level resistance
same,Plate count CFU/ml,[4]; Mitomycin B tested at a concentration of 15 μg/ml,>10^7d CFU/ml
same,Plate count CFU/ml,[11]; Mitomycin B tested at a concentration of 1.0 μg/ml,>10^7b CFU/ml
same,conversion of candidate substrate by MitM,[2],no conversions were detected
same,conversion of candidate substrate by MitN,[3],no conversions were detected
same,enzymatic conversion (methylation) by MitM,[1],no conversion products were observed
"C[S+](CC[C@H](N)C(=O)O)C[C@H]1O[C@@H](n2cnc3c(N)ncnc32)[C@H](O)[C@@H]1O (stereo partly drawn) [SAM, S-adenosyl-L-methionine]",Km,[13],23 µM
same,Km,[14],28 µM
same,Km,[15],13 µM
same,Km,[16],111 µM
same,Vmax for SAM,"[2]; MitM, pH 7.4, MA fixed 200 μM",29.8 ± 4.5 nmol/mg/min
same,Vmax for SAM,"[3]; MitN, pH 7.4, MA fixed 200 μM",49.4 ± 5.3 nmol/mg/min
same,Km,[17],25 µM
MitM (Streptomyces lavendulae),Km,"[18]; other: MitM, 400 μM mitomycin A, pH 7.0",30 µM
same,Km,"[18]; other: MitM, pH 7.4, MA fixed 200 μM, SAM 40-400 μM, pH 7.4",22.8 µM and 23 µM
MitN (Streptomyces lavendulae),Km,"[18]; other: MitN, pH 7.4, MA fixed 200 μM, SAM 40-400 μM, pH 7.4",86.6 µM and 87 µM
mitomycin G,enzymatic conversion (methylation) by MitM,[1],no conversion products were observed
